Numbered stars: 1 amine (or outer) side, 2 acyl side, 3 side chain; on linkers, the order of the positions; unused ones are H or OH. Square brackets hold non-standard residues; d marks the D form. Peptide text beside a SMILES is read from it. * marks the point of attachment. DOTA = O=C(O)CN1CCN(CC(=O)O)CCN(CC(=O)*)CCN(CC(=O)O)CC1; Gly(N-(3-F-4-Me-benzyl)) = Cc1ccc(CNCC(=O)*)cc1F; Phe(3-F) = N[C@@H](Cc1cccc(F)c1)C(=O)O; X1 = O=C(CN1CCC(N[*:1])CC1)[*:2]; d4Pal = N[C@H](Cc1ccncc1)C(=O)O; 4Amb = NCc1ccc(C(=O)O)cc1; Api = NC1(C(=O)O)CCNCC1; Ahx = NCCCCCC(=O)O; azaGly = NNC(=O)O; βAla = NCCC(=O)O; Sar = CNCC(=O)O
Target: human kisspeptin receptor (Homo sapiens (Human), UniProt Q969F8)
Sequence (Q969F8 whole entry): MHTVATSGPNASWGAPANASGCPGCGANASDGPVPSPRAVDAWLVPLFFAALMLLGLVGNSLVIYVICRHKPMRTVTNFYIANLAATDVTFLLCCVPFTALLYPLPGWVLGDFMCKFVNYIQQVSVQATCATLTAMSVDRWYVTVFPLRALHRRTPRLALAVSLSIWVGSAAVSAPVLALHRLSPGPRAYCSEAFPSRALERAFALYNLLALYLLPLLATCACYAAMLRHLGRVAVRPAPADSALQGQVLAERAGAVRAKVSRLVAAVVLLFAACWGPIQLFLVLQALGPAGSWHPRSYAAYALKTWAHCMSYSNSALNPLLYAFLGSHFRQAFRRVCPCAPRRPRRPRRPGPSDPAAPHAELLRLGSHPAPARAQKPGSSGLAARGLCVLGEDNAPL
Experiment: Human KISS1R binding assay (membrane competition binding)
Conditions: 90 min at room temperature; competition with 0.2 nM [125I]-metastin (45-54); Flp-In T-Rex 293 kisspeptin membranes; metal complexes nonradioactive Ga, In, Lu; read-out: hKiSSR Binding Ki (90 min)
Description: Crude membrane fractions are prepared from Flp-In T-Rex 293 (Thermo Fisher) cell line expressing the human kisspeptin receptor. The cells are grown to 85-100% confluence on standard tissue culture dishes in Dulbecco's Modified Eagles Medium (DMEM) (Corning) supplemented with 10% FBS (Gemini), 1% penicillin-streptomycin-glutamine (Gibco), 500 μg/mL hygromycin, and 15 μg/mL blastacidin. 48 hrs prior to preparing membranes 10 μg/ml of tetracycline is added to the culture media to induce receptor expression. To prepare membranes, cells are scraped and collected in 1× Dulbecco's phosphate buffered saline (Corning) and then pelleted at 1000 RPMs. The cell pellet is reconstituted in membrane preparation buffer (20 mM HEPES, 6 mM MgCl2 and 1 mM EGTA, protease inhibitor tablets (Pierce), pH 7.4) and placed in a cell disruption vessel (Parr Instrument company) at 1000 PSI for 30 min on ice. The pressurized contents are then released and spun down at 1000 RPMs and the supernatant is collected and further centrifuged at 15,000 RPMs to pellet the membranes. The membrane pellet is resuspended in membrane preparation buffer, snap frozen and stored at −80° C. for later use.
The human kisspeptin membrane binding assay utilizes the following components: radiolabel [^125I]-metastin (45-54) (human) (Perkinhmer), crude Flp-In T-Rex 293 kisspeptin membranes, and competing small molecule and peptide ligands. The assay is initiated by combining in assay buffer (50 mM TrisHCl, 5 mM MgCl2, 2 mM EGTA, 10 mM CaCl2, 0.1% BSA, pH 7.4) a dose response of competing ligand (final concentrations are typically 0-10,000 nM), 5-10 μg of Flp-In T-Rex 293 kisspeptin membranes, and 0.2 n M [^125I]-metastin (45-54) in a 96-well assay plate and allowed to incubate 90 minutes at room temperature. Assay contents are then filtered through unifilter CF/C: microplates (PerkinElmer) pre-soaked with 0.5% BSA and washed with 9×400 μL of cold wash buffer (10 mM HEPES, 500 mM NaCl, 0.1% Tween-20, pH7.4). Assay plates are read using a Microbeta^2 (PerkinElmer) and Ki values for compounds are determined using a GraphPad Prism 9.3 non-linear regression analysis.

Ki [nM] | SMILES
10 to 100 | Cc1ccc(CNCC(=O)N2CCC(NC(=O)[C@H](CC(C)C)NC(=O)CN(C)C(=O)[C@H](Cc3ccccc3)NC(=O)CCCCCNC(=O)CN3CCN(CC(=O)O)CCN(CC(=O)O)CCN(CC(=O)O)CC3)(C(=O)N[C@@H](Cc3c[nH]c4ccccc34)C(N)=O)CC2)cc1F [Compound 12] ({DOTA-Ahx}-F[Sar]L[Api](Gly(N-(3-F-4-Me-benzyl)))W-NH2)
10 to 100 | Cc1ccc(CNCC(=O)N2CCC(NC(=O)[C@H](CC(C)C)NC(=O)NNC(=O)[C@H](Cc3ccccc3)NC(=O)[C@@H](C)NC(=O)[C@@H](C)NC(=O)[C@@H](C)NC(=O)[C@@H](C)NC(=O)[C@@H](C)NC(=O)CCCCCNC(=O)CN3CCN(CC(=O)O)CCN(CC(=O)O)CCN(CC(=O)O)CC3)(C(=O)N[C@@H](Cc3c[nH]c4ccccc34)C(N)=O)CC2)cc1F [Compound 13] ({DOTA-Ahx}-[dA][dA][dA][dA][dA]F[azaGly]L[Api](Gly(N-(3-F-4-Me-benzyl)))W-NH2)
10 to 100 | Cc1ccc(CNCC(=O)N2CCC(NC(=O)[C@H](CC(C)C)NC(=O)NNC(=O)[C@H](Cc3ccccc3)NC(=O)[C@@H](CC(N)=O)NC(=O)[C@@H](CC(N)=O)NC(=O)[C@@H](CC(N)=O)NC(=O)[C@@H](CC(N)=O)NC(=O)[C@@H](CC(N)=O)NC(=O)CCNC(=O)CN3CCN(CC(=O)O)CCN(CC(=O)O)CCN(CC(=O)O)CC3)(C(=O)N[C@@H](Cc3c[nH]c4ccccc34)C(N)=O)CC2)cc1F [Compound 14] ({DOTA-βAla}-[dN][dN][dN][dN][dN]F[azaGly]L[Api](Gly(N-(3-F-4-Me-benzyl)))W-NH2)
> 100 | Cc1ccc(CNCC(=O)N2CCC(NC(=O)[C@H](CC(C)C)NC(=O)NNC(=O)[C@H](Cc3ccccc3)NC(=O)[C@@H](CC(N)=O)NC(=O)[C@@H](CCC(=O)O)NC(=O)[C@@H](CCC(=O)O)NC(=O)[C@@H](CC(N)=O)NC(=O)[C@@H](CC(N)=O)NC(=O)CCNC(=O)CN3CCN(CC(=O)O)CCN(CC(=O)O)CCN(CC(=O)O)CC3)(C(=O)N[C@@H](Cc3c[nH]c4ccccc34)C(N)=O)CC2)cc1F [Compound 15] ({DOTA-βAla}-[dN][dN][dE][dE][dN]F[azaGly]L[Api](Gly(N-(3-F-4-Me-benzyl)))W-NH2)
> 100 | Cc1ccc(CNCC(=O)N2CCC(NC(=O)[C@H](CC(C)C)NC(=O)NNC(=O)[C@H](Cc3ccccc3)NC(=O)[C@@H](CC(N)=O)NC(=O)[C@@H](CCC(=O)O)NC(=O)[C@@H](CCCCN)NC(=O)[C@@H](CC(N)=O)NC(=O)[C@@H](CC(N)=O)NC(=O)CCNC(=O)CN3CCN(CC(=O)O)CCN(CC(=O)O)CCN(CC(=O)O)CC3)(C(=O)N[C@@H](Cc3c[nH]c4ccccc34)C(N)=O)CC2)cc1F [Compound 16] ({DOTA-βAla}-[dN][dN][dK][dE][dN]F[azaGly]L[Api](Gly(N-(3-F-4-Me-benzyl)))W-NH2)
< 10 | Cc1ccc(CNCC(=O)N2CCC(NC(=O)[C@H](CC(C)C)NC(=O)NNC(=O)[C@H](Cc3ccccc3)NC(=O)CN(C)C(=O)CN(C)C(=O)CN3CCN(CC(=O)O)CCN(CC(=O)O)CCN(CC(=O)O)CC3)(C(=O)N[C@@H](Cc3c[nH]c4ccccc34)C(N)=O)CC2)cc1F [Compound 17] ({DOTA}-[Sar][Sar]F[azaGly]L[Api](Gly(N-(3-F-4-Me-benzyl)))W-NH2)
10 to 100 | Cc1ccc(CNCC(=O)N2CCC(NC(=O)[C@H](CC(C)C)NC(=O)NNC(=O)[C@H](Cc3ccccc3)NC(=O)[C@@H](CC(N)=O)NC(=O)[C@@H](CC(N)=O)NC(=O)CN3CCN(CC(=O)O)CCN(CC(=O)O)CCN(CC(=O)O)CC3)(C(=O)N[C@@H](Cc3c[nH]c4ccccc34)C(N)=O)CC2)cc1F [Compound 18] ({DOTA}-[dN][dN]F[azaGly]L[Api](Gly(N-(3-F-4-Me-benzyl)))W-NH2)
< 10 | Cc1ccc(CNCC(=O)N2CCC(NC(=O)[C@H](CC(C)C)NC(=O)NNC(=O)[C@H](Cc3ccccc3)NC(=O)[C@@H](NC(=O)[C@H](CC(N)=O)NC(=O)[C@@H]3CCCN3C(=O)[C@@H](Cc3ccc(O)cc3)NC(=O)CCCCCNC(=O)CN3CCN(CC(=O)O)CCN(CC(=O)O)CCN(CC(=O)O)CC3)[C@@H](C)O)(C(=O)N[C@@H](Cc3c[nH]c4ccccc34)C(N)=O)CC2)cc1F [Compound 20] ({DOTA-Ahx}-[dY]PNTF[azaGly]L[Api](Gly(N-(3-F-4-Me-benzyl)))W-NH2)
10 to 100 | Cc1ccc(CNCC(=O)N2CCC(NC(=O)[C@H](CC(C)C)NC(=O)NNC(=O)[C@H](Cc3ccccc3)NC(=O)[C@@H](CC(N)=O)NC(=O)CN3CCN(CC(=O)O)CCN(CC(=O)O)CCN(CC(=O)O)CC3)(C(=O)N[C@@H](Cc3c[nH]c4ccccc34)C(N)=O)CC2)cc1F [Compound 21] ({DOTA}-[dN]F[azaGly]L[Api](Gly(N-(3-F-4-Me-benzyl)))W-NH2)
< 10 | Cc1ccc(CNCC(=O)N2CCC(NC(=O)[C@H](CC(C)C)NC(=O)NNC(=O)[C@H](Cc3ccccc3)NC(=O)c3ccc(CNC(=O)CCCCCNC(=O)CN4CCN(CC(=O)O)CCN(CC(=O)O)CCN(CC(=O)O)CC4)cc3)(C(=O)N[C@@H](Cc3c[nH]c4ccccc34)C(N)=O)CC2)cc1F [Compound 22] ({DOTA-Ahx-4Amb}-F[azaGly]L[Api](Gly(N-(3-F-4-Me-benzyl)))W-NH2)
< 10 | Cc1ccc(CNCC(=O)N2CCC(NC(=O)[C@H](CC(C)C)NC(=O)NNC(=O)[C@H](Cc3ccccc3)NC(=O)[C@@H](NC(=O)[C@H](CC(N)=O)NC(=O)[C@@H](Cc3ccncc3)NC(=O)[C@@H](Cc3ccc(O)cc3)NC(=O)CN3CCN(CC(=O)O)CCN(CC(=O)O)CCN(CC(=O)O)CC3)[C@@H](C)O)(C(=O)N[C@@H](Cc3c[nH]c4ccccc34)C(N)=O)CC2)cc1F [Compound 23] ({DOTA}-[dY][d4Pal]NTF[azaGly]L[Api](Gly(N-(3-F-4-Me-benzyl)))W-NH2)
< 10 | Cc1ccc(CNCC(=O)N2CCC(NC(=O)[C@H](CC(C)C)NC(=O)NNC(=O)[C@H](Cc3cccc(F)c3)NC(=O)[C@@H](NC(=O)[C@H](CC(N)=O)NC(=O)[C@H](CCC(=O)O)NC(=O)[C@@H](Cc3ccc(O)cc3)NC(=O)CN3CCC(NC(=O)CN4CCN(CC(=O)O)CCN(CC(=O)O)CCN(CC(=O)O)CC4)CC3)[C@@H](C)O)(C(=O)N[C@@H](Cc3c[nH]c4ccccc34)C(N)=O)CC2)cc1F [Compound 24] ({DOTA}-[X1][dY]ENT[Phe(3-F)][azaGly]L[Api](Gly(N-(3-F-4-Me-benzyl)))W-NH2)
< 10 | Cc1ccc(CNCC(=O)N2CCC(NC(=O)[C@H](CC(C)C)NC(=O)NNC(=O)[C@H](Cc3ccccc3)NC(=O)[C@@H](NC(=O)[C@H](CC(N)=O)NC(=O)CCCCCNC(=O)CN3CCN(CC(=O)O)CCN(CC(=O)O)CCN(CC(=O)O)CC3)[C@@H](C)O)(C(=O)N[C@@H](Cc3c[nH]c4ccccc34)C(N)=O)CC2)cc1F [Compound 26] ({DOTA-Ahx}-NTF[azaGly]L[Api](Gly(N-(3-F-4-Me-benzyl)))W-NH2)
< 10 | Cc1ccc(CNCC(=O)N2CCC(NC(=O)[C@H](CC(C)C)NC(=O)NNC(=O)[C@H](Cc3cccc(F)c3)NC(=O)[C@@H](NC(=O)[C@H](CC(N)=O)NC(=O)[C@H](CCCCN)NC(=O)[C@@H](Cc3ccc(O)cc3)NC(=O)CCCCCNC(=O)CN3CCN(CC(=O)O)CCN(CC(=O)O)CCN(CC(=O)O)CC3)[C@@H](C)O)(C(=O)N[C@@H](Cc3c[nH]c4ccccc34)C(N)=O)CC2)cc1F [Compound 27] ({DOTA-Ahx}-[dY]KNT[Phe(3-F)][azaGly]L[Api](Gly(N-(3-F-4-Me-benzyl)))W-NH2)
< 10 | Cc1ccc(CNCC(=O)N2CCC(NC(=O)[C@H](CC(C)C)NC(=O)NNC(=O)[C@H](Cc3ccccc3)NC(=O)CN3CCC(NC(=O)CN4CCN(CC(=O)O)CCN(CC(=O)O)CCN(CC(=O)O)CC4)CC3)(C(=O)N[C@@H](Cc3c[nH]c4ccccc34)C(N)=O)CC2)cc1F [Compound 28] ({DOTA}-[X1]F[azaGly]L[Api](Gly(N-(3-F-4-Me-benzyl)))W-NH2)
< 10 | Cc1ccc(CNCC(=O)N2CCC(NC(=O)[C@H](CC(C)C)NC(=O)NNC(=O)[C@H](Cc3ccccc3)NC(=O)[C@@H](NC(=O)[C@H](CC(N)=O)NC(=O)[C@@H](Cc3ccncc3)NC(=O)[C@@H](Cc3ccc(O)cc3)NC(=O)CN3CCC(NC(=O)CN4CCN(CC(=O)O)CCN(CC(=O)O)CCN(CC(=O)O)CC4)CC3)[C@@H](C)O)(C(=O)N[C@@H](Cc3c[nH]c4ccccc34)C(N)=O)CC2)cc1F [Compound 29] ({DOTA}-[X1][dY][d4Pal]NTF[azaGly]L[Api](Gly(N-(3-F-4-Me-benzyl)))W-NH2)
< 10 | Cc1ccc(CNCC(=O)N2CCC(NC(=O)[C@H](CC(C)C)NC(=O)NNC(=O)[C@H](Cc3ccccc3)NC(=O)[C@@H](NC(=O)[C@H](CC(N)=O)NC(=O)[C@@H](Cc3c[nH]c4ccccc34)NC(=O)CCCCCNC(=O)CN3CCN(CC(=O)O)CCN(CC(=O)O)CCN(CC(=O)O)CC3)[C@@H](C)O)(C(=O)N[C@@H](Cc3c[nH]c4ccccc34)C(N)=O)CC2)cc1F [Compound 30] ({DOTA-Ahx}-[dW]NTF[azaGly]L[Api](Gly(N-(3-F-4-Me-benzyl)))W-NH2)
